One assay has as its target METTL3/METTL14 (Homo sapiens, UniProt Q86U44). In words: METTL3-14 standard enzyme assay (3H-SAM flashplate). To be noted: METTL3 biochemical assay. The method, then:
METTL3-14 Standard Enzyme Assay
Assays were performed in a 25 μl-volume in 384-well V-bottom polypropylene microplates (Greiner Bio-One, cat. No. 781280) at ambient temperature. Optimized 1× assay buffer was 20 mM HEPES pH 7.5, 50 mM KCl, 250 μM MgCl2, 1 mM DTT, 0.01% Tween, 0.01% BSG, 0.004 U/μl RNAseOUT (cat. No. 10777019, ThermoFisher Scientific, Waltham, MA). For compound screening METTL3/METTL14 (final concentration, f.c.=2.5 nM) was added using a Multidrop Combi (ThermoFisher Scientific, Waltham, MA) and preincubated for 5 min. Reactions were started by adding 3′ biotinylated RNA (UCUGGACUAAA-biotin) (f.c.=100 nM) and 3H-SAM (f.c.=100 nM) substrates. Reactions proceeded for 30 minutes and were quenched with excess non-radioactive SAM (f.c.=15 μM). The reactions were then transferred to streptavidin-coated flashplates and incubated for 2 hours at 25° C. Following two washing cycles with 0.1% Tween-20, the plates were sealed and read on a TopCount (PerkinElmer, Waltham, MA) plate-based scintillation counter. For determination of kinetic parameters, reaction times were optimized so that measurements were taken during the initial velocity phase of the reaction.

The next assay concerns the target PRMT5-MEP50 (Homo sapiens, UniProt O14744). In words: PRMT5 assay (3H-SAM flashplate). To be noted: PRMT5 biochemical assay. The method, then:
Assays were performed in a 25 μl-volume in 384-well V-bottom polypropylene microplates (Greiner Bio-One, cat. No. 781280) at ambient temperature. Optimized 1× assay buffer was 20 mM Tris-HCl pH 8.0, 1 mM DTT, […]. For compound screening PRMT5-MEP50 (final concentration, f.c.=2.5 nM) was added using a Multidrop Combi (ThermoFisher Scientific, Waltham, MA) and preincubated for 5 min. Reactions were started by adding 3′ biotinylated histone H4 peptide acetylated on serine 1 (Ac-[…]-Biotin) (f.c.=100 nM) and 3H-SAM (f.c.=250 nM) substrates. Reactions proceeded for 60 minutes and were quenched with excess non-radioactive SAM (f.c.=15 μM). The reactions were then transferred to streptavidin-coated flashplates and incubated for 2 hours at 25° C. Following two washing cycles with 0.1% Tween-20, the plates were sealed and read on a TopCount (PerkinElmer, Waltham, MA) plate-based scintillation counter. For determination of kinetic parameters, reaction times were optimized so that measurements were taken during the initial velocity phase of the reaction.

A word on the IC50: it is the concentration needed to halve the response being measured. Low readings indicate inhibition by little substance, high ones a need for much substance.

Chain of METTL3/METTL14 (Q86U44 whole entry, species assumed): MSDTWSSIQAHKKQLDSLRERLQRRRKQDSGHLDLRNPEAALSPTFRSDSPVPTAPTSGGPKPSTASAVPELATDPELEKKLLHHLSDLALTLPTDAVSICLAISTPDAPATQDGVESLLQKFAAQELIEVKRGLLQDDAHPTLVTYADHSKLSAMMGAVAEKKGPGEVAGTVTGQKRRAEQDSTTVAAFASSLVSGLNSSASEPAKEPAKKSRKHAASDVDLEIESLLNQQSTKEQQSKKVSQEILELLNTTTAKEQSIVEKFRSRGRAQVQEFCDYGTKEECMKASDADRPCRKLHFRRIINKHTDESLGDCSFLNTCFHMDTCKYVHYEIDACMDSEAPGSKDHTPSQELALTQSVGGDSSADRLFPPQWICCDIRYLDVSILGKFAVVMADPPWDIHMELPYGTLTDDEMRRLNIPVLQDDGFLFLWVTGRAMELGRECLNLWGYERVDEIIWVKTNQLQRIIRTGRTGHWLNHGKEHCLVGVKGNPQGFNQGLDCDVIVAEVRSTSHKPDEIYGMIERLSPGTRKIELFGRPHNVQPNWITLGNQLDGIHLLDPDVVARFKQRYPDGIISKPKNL
Chain of METTL3/METTL14 (Q9HCE5 whole entry partner, species assumed): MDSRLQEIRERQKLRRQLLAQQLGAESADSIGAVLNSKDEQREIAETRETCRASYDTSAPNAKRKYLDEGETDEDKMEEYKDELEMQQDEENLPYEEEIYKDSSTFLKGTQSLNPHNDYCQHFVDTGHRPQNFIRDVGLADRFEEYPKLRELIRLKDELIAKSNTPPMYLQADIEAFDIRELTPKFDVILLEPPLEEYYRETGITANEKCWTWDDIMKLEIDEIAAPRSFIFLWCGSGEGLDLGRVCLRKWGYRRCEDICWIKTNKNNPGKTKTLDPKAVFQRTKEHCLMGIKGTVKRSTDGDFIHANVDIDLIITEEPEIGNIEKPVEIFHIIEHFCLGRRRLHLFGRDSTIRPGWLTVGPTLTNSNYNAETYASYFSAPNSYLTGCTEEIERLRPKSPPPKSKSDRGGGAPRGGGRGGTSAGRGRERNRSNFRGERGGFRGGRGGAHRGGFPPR
Chain of PRMT5-MEP50 (O14744 whole entry): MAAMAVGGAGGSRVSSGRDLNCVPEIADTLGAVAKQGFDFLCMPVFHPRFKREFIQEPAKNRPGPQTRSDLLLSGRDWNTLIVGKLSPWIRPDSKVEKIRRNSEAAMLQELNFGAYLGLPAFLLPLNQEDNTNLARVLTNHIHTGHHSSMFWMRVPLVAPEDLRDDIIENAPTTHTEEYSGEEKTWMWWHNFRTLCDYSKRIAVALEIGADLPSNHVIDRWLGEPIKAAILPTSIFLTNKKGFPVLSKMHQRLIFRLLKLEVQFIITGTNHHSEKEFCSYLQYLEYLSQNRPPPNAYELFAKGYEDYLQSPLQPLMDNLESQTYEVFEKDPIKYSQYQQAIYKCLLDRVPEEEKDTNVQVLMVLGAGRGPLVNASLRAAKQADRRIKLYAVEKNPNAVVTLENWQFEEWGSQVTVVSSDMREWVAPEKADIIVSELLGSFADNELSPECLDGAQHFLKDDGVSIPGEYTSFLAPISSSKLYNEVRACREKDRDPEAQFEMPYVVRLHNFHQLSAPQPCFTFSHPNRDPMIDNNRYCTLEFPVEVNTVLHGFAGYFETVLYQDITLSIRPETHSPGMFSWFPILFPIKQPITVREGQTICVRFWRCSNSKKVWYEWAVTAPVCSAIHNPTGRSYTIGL
Chain of PRMT5-MEP50 (Q9BQA1 whole entry partner): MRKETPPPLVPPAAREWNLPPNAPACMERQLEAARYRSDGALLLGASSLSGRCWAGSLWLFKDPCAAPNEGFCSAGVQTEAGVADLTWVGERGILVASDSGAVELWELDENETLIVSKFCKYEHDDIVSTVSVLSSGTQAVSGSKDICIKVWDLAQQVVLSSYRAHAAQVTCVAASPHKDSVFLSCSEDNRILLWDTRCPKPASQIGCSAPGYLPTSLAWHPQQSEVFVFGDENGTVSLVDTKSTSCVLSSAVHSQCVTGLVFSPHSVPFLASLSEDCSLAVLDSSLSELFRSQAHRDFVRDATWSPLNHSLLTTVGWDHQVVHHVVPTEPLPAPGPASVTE

In the case of `CN1CCC(N(C[C@H]2CCNC2)C(=O)[C@H]2O[C@@H](n3cc(-c4ccn(C)n4)c4c(N)ncnc43)[C@H](O)[C@@H]2O)CC1` [Compound I-154], the IC50 on METTL3/METTL14 (Table 4) and at PRMT5-MEP50 (Table 4) was 100 to 1000 nM each time.

On to `Nc1ccnc(NC(=O)[C@H]2O[C@@H](n3cc(-n4cccn4)c4c(N)ncnc43)C[C@@H]2O)c1` [Compound I-18], for which the IC50 against METTL3/METTL14 (Table 3) was 10 to 100 nM; against PRMT5-MEP50 (Table 3), at least 1000 nM.

On to `CN1CCC(N(CCCNC(=O)OCc2ccccc2)C(=O)[C@H]2O[C@@H](n3cc(-c4ccn(C)n4)c4c(N)ncnc43)[C@H](O)[C@@H]2O)CC1` [Compound I-49, benzyl N-(3-{1-[(2S,3S,4R,5R)-5-[4-amino-5-(1-methyl-1H-pyrazol-3-yl)-7H-pyrrolo[2,3-d]pyrimidin-7-yl]-3,4-dihydroxyoxolan-2-yl]-N-(1-methylpiperidin-4-yl)formamido}propyl)carbamate], for which the IC50 was 100 to 1000 nM against METTL3/METTL14 (Table 4) and 10 to 100 nM at PRMT5-MEP50 (Table 4).

For the compound `CN1CCC[C@H](NC(=O)[C@H]2O[C@@H](n3cc(-c4ccn(C)n4)c4c(N)ncnc43)[C@H](O)[C@@H]2O)C1` [Compound I-230], the IC50 was at least 1000 nM against METTL3/METTL14 (Table 4) and 10 to 100 nM on PRMT5-MEP50 (Table 4).

Consider `COCCN(C(=O)[C@H]1O[C@@H](n2ccc3c(N)ncnc32)[C@H](O)[C@@H]1O)c1ccc2ccc(N3CCC3)nc2c1` [Compound I-12], for which the IC50 against METTL3/METTL14 (Table 3) and at PRMT5-MEP50 (Table 3) was at least 1000 nM each time.

`Cn1ccc(-c2cn([C@@H]3O[C@H](C(=O)NC4CCN(CC5CCC5)CC4)[C@@H](O)[C@H]3O)c3ncnc(N)c23)n1` [Compound I-223]: the IC50 against METTL3/METTL14 (Table 4) and against PRMT5-MEP50 (Table 4) was 10 to 100 nM each time.

In the case of `CN1CCC(NC(=O)[C@H]2O[C@@H](n3ccc4c(N)ncnc43)[C@H](O)[C@@H]2O)CC1` [Compound I-27], the IC50 against METTL3/METTL14 (Table 3) is at least 1000 nM; at PRMT5-MEP50 (Table 3), 100 to 1000 nM.

Regarding `CN(C)CCCN(C(=O)[C@H]1O[C@@H](n2cc(-c3ccn(C)n3)c3c(N)ncnc32)[C@H](O)[C@@H]1O)C1CCN(C)CC1` [Compound I-51, (2S,3S,4R,5R)-5-[4-amino-5-(1-methyl-1H-pyrazol-3-yl)-7H-pyrrolo[2,3-d]pyrimidin-7-yl]-N-[3-(dimethylamino)propyl]-3,4-dihydroxy-N-(1-methylpiperidin-4-yl)oxolane-2-carboxamide], the half-maximal inhibitory concentration (IC50) at METTL3/METTL14 (Table 4) and on PRMT5-MEP50 (Table 4) was 100 to 1000 nM throughout.

Take `CN1CCC(N(CC2CN(C)C2)C(=O)[C@H]2O[C@@H](n3cc(-c4ccn(C)n4)c4c(N)ncnc43)[C@H](O)[C@@H]2O)CC1` [Compound I-47]: the IC50 against METTL3/METTL14 (Table 4) was at least 1000 nM; on PRMT5-MEP50 (Table 4), 10 to 100 nM.

Take `Cn1ccc(-c2cn([C@@H]3O[C@H](C(=O)NC4CCN(c5ccccc5)CC4)[C@@H](O)[C@H]3O)c3ncnc(N)c23)n1` [Compound I-221]: the IC50 against METTL3/METTL14 (Table 4) and on PRMT5-MEP50 (Table 4) was 100 to 1000 nM in each case.

Consider `Cn1ccc(-c2cn([C@@H]3O[C@H](C(=O)N(CCCO)C4CCNCC4)[C@@H](O)[C@H]3O)c3ncnc(N)c23)n1` [Compound I-8], for which the IC50 against METTL3/METTL14 (Table 3) was 100 to 1000 nM; against PRMT5-MEP50 (Table 3) it was under 10 nM.

In the case of `COCCNC(=O)[C@H]1O[C@@H](n2cc(-c3ccn(C)n3)c3c(N)ncnc32)[C@H](O)[C@@H]1O` [Compound I-3], the IC50 at METTL3/METTL14 (Table 3) and on PRMT5-MEP50 (Table 3) was at least 1000 nM in each case.

Consider `CN(C)CCNC(=O)[C@H]1O[C@@H](n2cc(-c3ccn(C)n3)c3c(N)ncnc32)[C@H](O)[C@@H]1O` [Compound I-4], for which the IC50 against METTL3/METTL14 (Table 3) is at least 1000 nM; against PRMT5-MEP50 (Table 3), 10 to 100 nM.

As to `Nc1ncnc2c1c(-n1cccn1)cn2[C@H]1C[C@H](O)[C@@H](C(=O)Nc2ccc3nc(NC4CCC4)[nH]c3c2)O1` [Compound I-30], the half-inhibitory concentration (IC50) on METTL3/METTL14 (Table 3) is under 10 nM; at PRMT5-MEP50 (Table 3), 100 to 1000 nM.

Turning to `CNc1ccc2ccc(N(CC[C@H](N)C(=O)O)C(=O)[C@H]3O[C@@H](n4cc(-c5ccn(C)n5)c5c(N)ncnc54)[C@H](O)[C@@H]3O)cc2n1` [Compound I-38, (2S)-2-amino-4-{1-[(2S,3S,4R,5R)-5-[4-amino-5-(1-methyl-1H-pyrazol-3-yl)-7H-pyrrolo[2,3-d]pyrimidin-7-yl]-3,4-dihydroxyoxolan-2-yl]-N-[2-(methylamino)quinolin-7-yl]formamido}butanoic acid], the results for the IC50 against METTL3/METTL14 (Table 4) and against PRMT5-MEP50 (Table 4) were under 10 nM and 100 to 1000 nM, respectively.

Consider `CN1CC(NC(=O)[C@H]2O[C@@H](n3cc(-c4ccn(C)n4)c4c(N)ncnc43)[C@H](O)[C@@H]2O)C1` [Compound I-216], for which the results for the IC50 on METTL3/METTL14 (Table 4) and against PRMT5-MEP50 (Table 4) were 100 to 1000 nM and 10 to 100 nM, respectively.

As for `Cn1ccc(-c2cn([C@@H]3O[C@H](C(=O)NCC4CCOCC4)[C@@H](O)[C@H]3O)c3ncnc(N)c23)n1` [Compound I-21], the values for the IC50 against METTL3/METTL14 (Table 3) and against PRMT5-MEP50 (Table 3) were 100 to 1000 nM and at least 1000 nM, respectively.

As to `Cn1ccc(-c2cn([C@@H]3O[C@H](C(=O)NCC4CCC(F)(F)CC4)[C@@H](O)[C@H]3O)c3ncnc(N)c23)n1` [Compound I-22], the concentration for half-maximal inhibition (IC50) on METTL3/METTL14 (Table 3) and against PRMT5-MEP50 (Table 3) was 100 to 1000 nM throughout.

`Nc1ncnc2c1c(-n1cccn1)cn2[C@H]1C[C@H](O)[C@@H](C(=O)Nc2ccc3ccc(N4CCC4)nc3c2)O1` [Compound I-13]: the IC50 at METTL3/METTL14 (Table 3) was under 10 nM; at PRMT5-MEP50 (Table 3), at least 1000 nM.

As for `Cn1ccc(-c2cn([C@@H]3O[C@H](C(=O)NC4CCN(c5ccccn5)CC4)[C@@H](O)[C@H]3O)c3ncnc(N)c23)n1` [Compound I-222], the IC50 was 100 to 1000 nM against METTL3/METTL14 (Table 4) and at least 1000 nM at PRMT5-MEP50 (Table 4).

For `Cn1ccc(-c2cn([C@@H]3O[C@H](C(=O)NC4CCN(C5CCC5)CC4)[C@@H](O)[C@H]3O)c3ncnc(N)c23)n1` [Compound I-224], the concentration for half-maximal inhibition (IC50) on METTL3/METTL14 (Table 4) and on PRMT5-MEP50 (Table 4) was 100 to 1000 nM throughout.

Consider `CN1CCC(N(CCCC(=O)O)C(=O)[C@H]2O[C@@H](n3cc(-c4ccn(C)n4)c4c(N)ncnc43)[C@H](O)[C@@H]2O)CC1` [Compound I-58, 4-{1-[(2S,3S,4R,5R)-5-[4-amino-5-(1-methyl-1H-pyrazol-3-yl)-7H-pyrrolo[2,3-d]pyrimidin-7-yl]-3,4-dihydroxyoxolan-2-yl]-N-(1-methylpiperidin-4-yl)formamido}butanoic acid], for which the IC50 against METTL3/METTL14 (Table 4) was at least 1000 nM; against PRMT5-MEP50 (Table 4) it was 10 to 100 nM.

Regarding `COCCCN(C(=O)[C@H]1O[C@@H](n2cc(-c3ccn(C)n3)c3c(N)ncnc32)[C@H](O)[C@@H]1O)C1CCNCC1` [Compound I-7], the IC50 on METTL3/METTL14 (Table 3) was at least 1000 nM; on PRMT5-MEP50 (Table 3), 10 to 100 nM.

Turning to `Cn1ccc(-c2cn([C@@H]3O[C@H](C(=O)NCC4CCN(CCO)CC4)[C@@H](O)[C@H]3O)c3ncnc(N)c23)n1` [Compound I-19], the IC50 against METTL3/METTL14 (Table 3) is 100 to 1000 nM; at PRMT5-MEP50 (Table 3), 10 to 100 nM.

Regarding `COCCCN(C)C(=O)[C@H]1O[C@@H](n2cc(-c3ccn(C)n3)c3c(N)ncnc32)[C@H](O)[C@@H]1O` [Compound I-5], the IC50 on METTL3/METTL14 (Table 3) and at PRMT5-MEP50 (Table 3) was at least 1000 nM each time.

Turning to `Cn1ccc(-c2cn([C@@H]3O[C@H](C(=O)NC4CCC5(CC4)CNC5)[C@@H](O)[C@H]3O)c3ncnc(N)c23)n1` [Compound I-208], the IC50 on METTL3/METTL14 (Table 4) and against PRMT5-MEP50 (Table 4) was 100 to 1000 nM each time.

In the case of `Cn1ccc(-c2cn([C@@H]3O[C@H](C(=O)NC4CCN(C(=O)OCc5ccccc5)CC4)[C@@H](O)[C@H]3O)c3ncnc(N)c23)n1` [Compound I-225], the IC50 against METTL3/METTL14 (Table 4) and on PRMT5-MEP50 (Table 4) was 100 to 1000 nM in each case.

For `Cn1ccc(-c2cn([C@@H]3O[C@H](C(=O)N[C@H]4C[C@@H](O)C4)[C@@H](O)[C@H]3O)c3ncnc(N)c23)n1` [Compound I-214], the IC50 against METTL3/METTL14 (Table 4) and on PRMT5-MEP50 (Table 4) was at least 1000 nM throughout.
